The values that follow come from US4689340A, “Trihaloimidazole insecticide” (Sumitomo Chemical Company, Limited, priority 1985, dated 1987).

Where two headings read alike, the source gives them in different places.

A short description of data set [1]: Acute Oral Toxicity Test to Mice (Test Example 1-1). The note with it: mouse, in vivo; for selectivity ratio: po, mice oral LD50 (a) / German cockroach LD50 (b), read-out: Safety coefficient (a)/(b); for LD50 at 168 h: oral (stomach), corn oil, male ICR mice, 7 days' observation. The procedure:
1-1 Acute Oral Toxicity Test to Mice
(§1) The present compounds and the control were each diluted with corn oil to prescribed concentrations, and the dilute solutions obtained were forcedly administered to the stomach of six-week old male mice of ICR strain weighing 24 to 31 g, to which no food had been given for about 20 hours, at a rate of 0.1 ml/10 g of body weight. […] The number of the dead and alive was examined by seven day's observation to obtain LD50 value (50% lethal dosage) (5 mice per group). 1-2 Insecticidal activity test to German cockroach
The results of the acute oral toxicity test to mice and insecticidal activity test to German cockroaches on the test compounds are shown in Table 3. It is apparent from the table that the present compounds have the characteristics that the toxicity to the warm-blooded animal is low and the insecticidal activity on the insect pest is high. In order to make this characteristics clearer, the following safety coefficient was obtained from the test results. [formula]

Data set [2] deals with German cockroach (Blattela germanica). The data set is described as follows: Oil spray direct spray knock-down test, susceptible strain (Test Example 5). Format: in vivo. The conditions noted are these: 0.6 ml of 0.1% oil spray. The source says:
(§2) […] of the present compound (1), 2 parts of xylene and 97.8 parts of kerosene are mixed to obtain an oil spray.
(§3) Two groups of five male and five femlae adults per group of German cockroach (Blattela germanica), one group belonging to a susceptible strain and the other belonging to a strain low susceptible to pyrethroids,were liberated in a polyethylene cup of 9 cm in diameter thinly coated with vaseline at the inside surface. After covering the cup with a 16-mesh nylon gauze, the cup was placed on the bottom of a glass cylinder (inside diameter, 10 cm; height, 37 cm). Thereafter 0.6 ml of each of the 0.1% oil sprays of the present compounds and the control, prepared according to Formulation example 1, was directly sprayed onto the adults by means of a spray gun under 0.6 atmospheric pressure from the top of the cylinder. The number of knocked-down insects with the lapse of time was counted to obtain KT50 value (50% knocked-down time) (two replications).

In data set [3] the test system is German cockroach (Blattella germanica). The data set is described as follows: Insecticidal activity test to German cockroach, topical application (Test Example 1-2). The class given is in vivo, strain low susceptible to pyrethroids. The conditions noted are these: 48 h, read-out: Insecticidal activity on German cockroaches LD50 value (b). As for the experimental part: as §1
The present compounds and the control were each diluted with acetone to prescribed concentrations and topically applied to the ventral thorax of the male adults of German cockroach (Blattella germanica) which belong to a strain low susceptible to pyrethroids, at a rate of 1 μl/adult. After application, the adults were bred on bait and water in a polyethylene cup. After two days, the number of the dead and alive was examined to obtain LD50 value (10 adults per group; two replications).

For a further data set, the system named is cockroach. The data set is described as follows: Insecticidal activity as cockroach-controlling insecticides (general statement). The class given is in vivo. The note with it: among the listed cockroach-controlling compounds.
Data set [4] relates to German cockroach (Blattela germanica). The data set is described as follows: Oil spray direct spray knock-down test, strain low susceptible to pyrethroids (Test Example 5). The class given is in vivo. The note with it: 0.6 ml of 0.1% oil spray.
Text: as §2, §3

Data set [5] has as its system smoky brown cockroach (Periplaneta fuliginosa). The data set is described as follows: Topical application insecticidal test on smoky brown cockroach (Test Example 2). The class given is in vivo. The note with it: Validiblatta fuliginosa, 48 h. The procedure: The present compounds and the control were each diluted with acetone and topically applied to the ventral thorax of the male adults of smoky brown cockroach (Periplaneta fuliginosa) at a rate of 10μg a.i./adult. After application, the adults were bred on bait and water in a polyethylene cup. After two days, the number of the dead and alive was examined to obtain a mortality (5 adults per group; two replications).

For data set [6], the system named is German cockroach (Blattella germanica). The data set can be described thus: Heating fumigant test in (70 cm)^3 glass chamber (Test Example 3). The note with it: for mortality at 40 mg/m3, 40 mg/m3: Blattella germanica, 48 h. The class given is in vivo, strain low susceptible to pyrethroids. The procedure:
(§4) One hundred mg of each of the present compounds (1) to (7) is dissolved in a proper amount of acetone, and a porous ceramic plate of 4.0 cm×4.0cm×1.2 cm (thick) is impregnated with this solution to obtain the heating fumigant of each compound.
Four polyethylene cups (inside diameter, 10 cm; height, 8 cm) coated with butter at the inside surface were set at the four corners, respectively, of the bottom of a (70 cm)^3 glass chamber (0.34 m^3). Ten male adults per group of German cockroach (Blattella germanica) which belongs to a strain low susceptible to pyrethroids, were liberated in each of two polyethylene cups, and 10 female adults per group of the insect were liberated in each of the remaining two. An electric heater was set at the center of the bottom of the glass chamber, and each of the porous ceramic plates impregnating the present compounds and the control according to Formulation example 8 (13.7 mg/plate: 40 mg/m^3), was placed thereon. The plate was heated to about 200° C. by applying current for 20 minutes. The number of knocked-down insects with the lapse of time was examined to obtain KT50 (50% knocked-down time). Eighty minutes after current application was started, the cups containing the test insects were taken out of the chamber, and the test insects were bred on water and bait. After two days, the number of the dead and alive was examined to obtain a mortality.

Data set [7] relates to German cockroaches (Blattella germanica). The data set is described as follows: Heating fumigant test in (183 cm)^3 Peet Grady's chamber (Test Example 4). The class given is in vivo, strain low susceptible to pyrethroids. The note with it: for mortality at 10 mg/m3, 10 mg/m3: Blattella germanica, 72 h. The procedure:
as §4
At the bottom of a (183 cm)^3 Peet Grady's chamber (6.1 m^3) were placed three polyethylene cups (inside diameter, 10 cm; height, 8 cm) coated with butter at the inside surface, and 20 adult German cockroaches (10 males and 10 females) (Blattella germanica), which belong to a strain low susceptible to pyrethroids were liberated in each cup. An electric heater was set at the center of the bottom of the chamber, and each of the porous ceramic plates impregnated with the present compounds and the control according to Formulation example 8 (61 mg/plate: 10 mg/m^3), was placed thereon. The plate was heated to about 200° C. by applying current for 70 minutes. The number of knocked-down insects with the lapse of time was examined to obtain KT50 value (50% knocked-downtime). Eighty minutes after current application was started, the cups containing the test insects were taken out of the chamber, and the test insects were bred on water and bait. After three days, the number of the dead and alive was examined to obtain a mortality.

The mark [8] stands for this setting: ceramic plate heating fumigant, 13.7 mg/plate: 40 mg/m^3, 0.34 m^3 chamber.
The mark [9] stands for this setting: ceramic plate heating fumigant, 61 mg/plate: 10 mg/m^3, 6.1 m^3 chamber.
Where [10] appears, read: ceramic plate heating fumigant, 13.7 mg/plate: 40 mg/m^3, 0.34 m^3 chamber, after two days, read-out: Mortality (%).
The mark [11] stands for this setting: ceramic plate heating fumigant, 61 mg/plate: 10 mg/m^3, 6.1 m^3 chamber, after three days, read-out: Mortality (%).

Take `Clc1nc(Cl)n(COCCCCBr)c1Cl` [(1), 1-(4-bromobutoxymethyl)-2,4,5-trichloroimidazole]: in data set [1], the selectivity ratio is above 50 and the LD50 at 168 h is above 300 mg/kg. Further, in data set [2], the “Susceptible strain KT50 value” is 1.1 min. Besides, the LD50 in data set [3] was 6.4 mg/kg. Moreover, the “insecticidal activity (in words)” value with cockroach was “most superior insecticidal activity”. Also, the “Strain low susceptible to pyrethroids KT50 value” (“Strain low susceptible” below) in data set [4] was 0.70 min. Besides, in data set [5], the mortality at 0.01 mg is 80%. In addition, in data set [6], the mortality at 40 mg/m3, 40 mg/m3 was 100%. The “KT50 value (50% knocked-down time)” value in data set [6] (setting [8]) was determined as 28 min. The same molecule showed a mortality at 10 mg/m3, 10 mg/m3 in data set [7] of 100%. Also, the “KT50 value (50% knocked-down time)” value in data set [7] (setting [9]) is 38 min.
`ClCCCCOCn1c(Cl)nc(Cl)c1Cl` [(2), 1-(4-chlorobutoxymethyl)-2,4,5-trichloroimidazole]: in data set [1], the selectivity ratio is above 50 and the LD50 at 168 h is above 300 mg/kg. Further, in data set [3], the 50% lethal dose (LD50) came to 6.2 mg/kg. In data set [5], this molecule displayed a mortality at 0.01 mg of 100%. In addition, the mortality at 40 mg/m3, 40 mg/m3 in data set [6] stood at 100%. In data set [6] (setting [8]), the “KT50 value (50% knocked-down time)” value amounted to 41 min. In addition, the mortality at 10 mg/m3, 10 mg/m3 in data set [7] was determined as 80%. In data set [7] (setting [9]), the “KT50 value (50% knocked-down time)” value was found to be 63 min.
For `BrCCCCOCn1c(Br)nc(Br)c1Br` [(3), 1-(4-bromobutoxymethyl)-2,4,5-tribromoimidazole], the “Susceptible strain KT50 value” in data set [2] was 1.1 min. The “Strain low susceptible” value in data set [4] stood at 1.2 min. In addition, the mortality at 40 mg/m3, 40 mg/m3 in data set [6] (setting [10]) turned out to be 100%. In addition, the entries for the “KT50 value (50% knocked-down time)” value in data set [6] (setting [8]) and in data set [7] (setting [9]) were 45 min and 77 min, respectively. In addition, in data set [7] (setting [11]), the mortality at 10 mg/m3, 10 mg/m3 is 90%.
In the case of `ClCCCCOCn1c(Br)nc(Br)c1Br` [(4), 1-(4-chlorobutoxymethyl)-2,4,5-tribromoimidazole], the “Susceptible strain KT50 value” in data set [2] was 2.1 min. In data set [4], the “Strain low susceptible” value is “≈ 0.5 minute”. Besides, the mortality at 40 mg/m3, 40 mg/m3 in data set [6] (setting [10]) was determined as 90%. The “KT50 value (50% knocked-down time)” value in data set [6] (setting [8]) amounted to 58 min.
Take `Clc1nc(Cl)n(COCCCCCBr)c1Cl` [(5)]: the mortality at 40 mg/m3, 40 mg/m3 in data set [6] (setting [10]) is 87.5%. Also, in data set [6] (setting [8]), the “KT50 value (50% knocked-down time)” value was 68 min.
For the molecule `Clc1nc(Cl)n(COCCCCCCBr)c1Cl` [(6), 1-(6-bromohexyloxymethyl)-2,4,5-trichloroimidazole], the mortality at 10 mg/m3, 10 mg/m3 in data set [7] (setting [11]) is 95%. The “KT50 value (50% knocked-down time)” value in data set [7] (setting [9]) was 41 min.
As to `BrCCCCCCOCn1c(Br)nc(Br)c1Br` [(7), 1-(6-bromohexyloxymethyl)-2,4,5-tribromoimidazole], the “Susceptible strain KT50 value” in data set [2] came to 2.3 min. Moreover, in data set [4], the “Strain low susceptible” value was found to be 0.72 min. Moreover, the mortality at 40 mg/m3, 40 mg/m3 in data set [6] (setting [10]) worked out at 92.5%. Besides, the “KT50 value (50% knocked-down time)” value in data set [6] (setting [8]) came to 65 min.
With `CCCCOCn1c(Cl)nc(Cl)c1Cl` [(A)], the “Susceptible strain KT50 value” in data set [2] was above 20 min. Besides, the LD50 in data set [3] was above 10 mg/kg. The “Strain low susceptible” value in data set [4] was above 20 min. Moreover, the mortality at 10 mg/m3, 10 mg/m3 in data set [7] (setting [11]) came to 8%. In addition, the “KT50 value (50% knocked-down time)” value in data set [7] (setting [9]) was above 80 min.
For the molecule `CCCCCOCn1c(Cl)nc(Cl)c1Cl` [(B)], in data set [2], the “Susceptible strain KT50 value” is above 20 min. The LD50 in data set [3] was above 20 mg/kg. In data set [4], the “Strain low susceptible” value was above 20 min. For the same molecule, the mortality at 0.01 mg in data set [5] (10μg a.i./adult, male adults, after two days, read-out: Mortality (%)) is 40%. Moreover, in data set [6] (setting [10]), the mortality at 40 mg/m3, 40 mg/m3 stood at 47.5%. For the same molecule, the “KT50 value (50% knocked-down time)” value in data set [6] (setting [8]) and in data set [7] (setting [9]) was above 80 min in each case. Besides, in data set [7] (setting [11]), the mortality at 10 mg/m3, 10 mg/m3 was determined as 0%.
As for `BrCCOCn1c(Br)nc(Br)c1Br` [(C)], in data set [1], the selectivity ratio amounted to 16 and the LD50 at 168 h came to 110 mg/kg. In data set [2], the “Susceptible strain KT50 value” was above 20 min. Moreover, the 50% lethal dose (LD50) in data set [3] stood at 7 mg/kg. The “Strain low susceptible” value in data set [4] was at least 20 min. This molecule also displayed a mortality at 10 mg/m3, 10 mg/m3 in data set [7] of 40%. In data set [7] (setting [9]), the “KT50 value (50% knocked-down time)” value is above 80 min.
As for `ClCCOCn1c(Br)nc(Br)c1Br` [(D)], in data set [1], the selectivity ratio amounted to 18 and the LD50 at 168 h worked out at 170 mg/kg. Besides, in data set [2], the “Susceptible strain KT50 value” was above 20 min. Also, the LD50 in data set [3] is 9.4 mg/kg. Besides, the “Strain low susceptible” value in data set [4] was “≈ 20 minute”. Moreover, the mortality at 10 mg/m3, 10 mg/m3 in data set [7] was 3%. In addition, the “KT50 value (50% knocked-down time)” value in data set [7] (setting [9]) was above 80 min.
For `CNC(=O)Oc1ccccc1OC(C)C` [(E), Propoxur], in data set [1], the selectivity ratio was 5.6 and the LD50 at 168 h is 39 mg/kg. Moreover, the “Susceptible strain KT50 value” in data set [2] is 6.9 min. The LD50 in data set [3] is 7 mg/kg. Further, in data set [4], the “Strain low susceptible” value came out at 10 min. The mortality at 40 mg/m3, 40 mg/m3 in data set [6] (setting [10]) stood at 0%. Also, the “KT50 value (50% knocked-down time)” value in data set [6] (setting [8]) is above 80 min. Moreover, the mortality at 10 mg/m3, 10 mg/m3 in data set [7] (setting [11]) is 0%. For the same molecule, the “KT50 value (50% knocked-down time)” value in data set [7] (setting [9]) is above 80 min.

By LD50 is commonly meant the dose expected to kill half of the subjects tested. In general, mortality refers to the percentage killed.
